Measured values: patent US20240239863A1, “GIP RECEPTOR AGONIST AND USE THEREOF” (HANGZHOU ZHONGMEIHUADONG PHARMACEUTICAL CO., LTD., priority 2022, published 2024)
Non-standard residues stand in square brackets, D forms with d. Residues, ends and D or L forms follow the SMILES beside them. Aib = CC(C)(N)C(=O)O

Target: hGLP-1R (Homo sapiens, UniProt P43220)
Assay: Cell agonistic activity at GLP-1 receptor (Example 7)
Type: cell-based

Sequence of hGLP-1R (P43220 24-463): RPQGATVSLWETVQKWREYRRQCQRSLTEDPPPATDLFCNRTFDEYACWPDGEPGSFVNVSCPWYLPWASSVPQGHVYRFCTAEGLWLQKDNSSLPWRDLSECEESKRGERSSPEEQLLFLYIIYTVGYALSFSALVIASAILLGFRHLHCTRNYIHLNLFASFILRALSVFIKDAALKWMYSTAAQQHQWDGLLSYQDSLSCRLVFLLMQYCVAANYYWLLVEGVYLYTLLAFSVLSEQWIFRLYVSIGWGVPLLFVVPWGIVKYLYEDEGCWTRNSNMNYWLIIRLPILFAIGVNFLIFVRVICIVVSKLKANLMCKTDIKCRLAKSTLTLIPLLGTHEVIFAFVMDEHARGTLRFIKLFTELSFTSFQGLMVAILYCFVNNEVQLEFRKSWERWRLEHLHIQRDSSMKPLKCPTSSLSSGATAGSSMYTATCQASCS

| Compound | EC50 [pM] |
| --- | --- |
| CC[C@H](C)[C@H](NC(=O)[C@H](CCC(=O)O)NC(=O)[C@H](CC(=O)O)NC(=O)[C@H](CC(C)C)NC(=O)C(C)(C)NC(=O)[C@@H](NC(=O)[C@H](CO)NC(=O)[C@H](Cc1ccc(O)cc1)NC(=O)[C@H](CC(=O)O)NC(=O)[C@H](CO)NC(=O)[C@@H](NC(=O)[C@H](Cc1ccccc1)NC(=O)[C@@H](NC(=O)CNC(=O)[C@H](CCC(=O)O)NC(=O)C(C)(C)NC(=O)[C@@H](N)Cc1ccc(O)cc1)[C@@H](C)O)[C@@H](C)CC)[C@@H](C)CC)C(=O)N[C@@H](Cc1c[nH]cn1)C(=O)N[C@@H](CCC(N)=O)C(=O)N[C@@H](CCCCN)C(=O)N[C@@H](CC(=O)O)C(=O)N[C@@H](Cc1ccccc1)C(=O)N[C@H](C(=O)N[C@@H](CCCCN)C(=O)N[C@@H](Cc1c[nH]c2ccccc12)C(=O)N[C@@H](CC(C)C)C(=O)N[C@@H](CC(C)C)C(=O)N[C@@H](C)C(=O)N[C@@H](CCC(N)=O)C(=O)N[C@@H](CCCCN)C(=O)NCC(=O)O)C(C)C [Sequence 2] (H-Y[Aib]EGTFISDYSI[Aib]LDEIHQKDFVKWLLAQKG-OH; N-terminus and C-terminus assumed) | > 100 |
| CC[C@H](C)[C@H](NC(=O)[C@H](CO)NC(=O)[C@H](Cc1ccc(O)cc1)NC(=O)[C@H](CC(=O)O)NC(=O)[C@H](CO)NC(=O)[C@@H](NC(=O)[C@H](Cc1ccccc1)NC(=O)[C@@H](NC(=O)CNC(=O)[C@H](CCC(=O)O)NC(=O)C(C)(C)NC(=O)[C@@H](N)Cc1ccc(O)cc1)[C@@H](C)O)[C@@H](C)CC)C(=O)N[C@@H](C)C(=O)N[C@@H](CC(C)C)C(=O)N[C@@H](CC(=O)O)C(=O)N[C@@H](CCCCN)C(=O)N[C@H](C(=O)N[C@@H](Cc1c[nH]cn1)C(=O)N[C@@H](CCC(N)=O)C(=O)N[C@@H](CCC(=O)O)C(=O)N[C@@H](CC(=O)O)C(=O)N[C@@H](Cc1ccccc1)C(=O)N[C@H](C(=O)N[C@@H](CC(N)=O)C(=O)N[C@@H](Cc1c[nH]c2ccccc12)C(=O)N[C@@H](CC(C)C)C(=O)N[C@@H](CC(C)C)C(=O)N[C@@H](C)C(=O)N[C@@H](CCC(N)=O)C(=O)N[C@@H](CCCNC(=N)N)C(=O)NCC(=O)O)C(C)C)[C@@H](C)CC [Sequence 9] (H-Y[Aib]EGTFISDYSIALDKIHQEDFVNWLLAQRG-OH; N-terminus and C-terminus assumed) | > 100 |
| CC[C@H](C)[C@H](NC(=O)[C@H](CO)NC(=O)[C@H](Cc1ccc(O)cc1)NC(=O)[C@H](CC(=O)O)NC(=O)[C@H](CO)NC(=O)[C@@H](NC(=O)[C@H](Cc1ccccc1)NC(=O)[C@@H](NC(=O)CNC(=O)[C@H](CCC(=O)O)NC(=O)C(C)(C)NC(=O)[C@@H](N)Cc1ccc(O)cc1)[C@@H](C)O)[C@@H](C)CC)C(=O)N[C@@H](C)C(=O)N[C@@H](CC(C)C)C(=O)N[C@@H](CC(=O)O)C(=O)N[C@@H](CCCNC(=N)N)C(=O)N[C@@H](CC(C)C)C(=O)N[C@@H](Cc1c[nH]cn1)C(=O)N[C@@H](CCC(N)=O)C(=O)N[C@@H](CCC(=O)O)C(=O)N[C@@H](CC(=O)O)C(=O)N[C@@H](Cc1ccccc1)C(=O)N[C@H](C(=O)N[C@@H](CC(N)=O)C(=O)N[C@@H](Cc1c[nH]c2ccccc12)C(=O)N[C@@H](CC(C)C)C(=O)N[C@@H](CC(C)C)C(=O)N[C@@H](C)C(=O)N[C@@H](CCC(N)=O)C(=O)N[C@@H](CCCCN)C(=O)NCC(=O)O)C(C)C [Sequence 16] (H-Y[Aib]EGTFISDYSIALDRLHQEDFVNWLLAQKG-OH; N-terminus and C-terminus assumed) | > 100 |
| CC[C@H](C)[C@H](NC(=O)[C@H](CO)NC(=O)[C@H](Cc1ccc(O)cc1)NC(=O)[C@H](CC(=O)O)NC(=O)[C@H](CO)NC(=O)[C@@H](NC(=O)[C@H](Cc1ccccc1)NC(=O)[C@@H](NC(=O)CNC(=O)[C@H](CCC(=O)O)NC(=O)C(C)(C)NC(=O)[C@@H](N)Cc1ccc(O)cc1)[C@@H](C)O)[C@@H](C)CC)C(=O)N[C@@H](C)C(=O)N[C@@H](CC(C)C)C(=O)N[C@@H](CC(=O)O)C(=O)N[C@@H](CCCNC(=N)N)C(=O)N[C@@H](CC(C)C)C(=O)N[C@@H](Cc1c[nH]cn1)C(=O)N[C@@H](CCC(N)=O)C(=O)N[C@@H](CCC(N)=O)C(=O)N[C@@H](CC(=O)O)C(=O)N[C@@H](Cc1ccccc1)C(=O)N[C@H](C(=O)N[C@@H](CCCCN)C(=O)N[C@@H](Cc1c[nH]c2ccccc12)C(=O)N[C@@H](CC(C)C)C(=O)N[C@@H](CC(C)C)C(=O)N[C@@H](C)C(=O)N[C@@H](CCC(N)=O)C(=O)N[C@@H](CCCNC(=N)N)C(=O)NCC(=O)O)C(C)C [Sequence 17] (H-Y[Aib]EGTFISDYSIALDRLHQQDFVKWLLAQRG-OH; N-terminus and C-terminus assumed) | > 100 |
| CC[C@H](C)[C@H](NC(=O)[C@H](CO)NC(=O)[C@H](Cc1ccc(O)cc1)NC(=O)[C@H](CC(=O)O)NC(=O)[C@H](CO)NC(=O)[C@@H](NC(=O)[C@H](Cc1ccccc1)NC(=O)[C@@H](NC(=O)CNC(=O)[C@H](CCC(=O)O)NC(=O)C(C)(C)NC(=O)[C@@H](N)Cc1ccc(O)cc1)[C@@H](C)O)[C@@H](C)CC)C(=O)N[C@@H](C)C(=O)N[C@@H](CC(C)C)C(=O)N[C@@H](CC(=O)O)C(=O)N[C@@H](CCCNC(=N)N)C(=O)N[C@H](C(=O)N[C@@H](Cc1c[nH]cn1)C(=O)N[C@@H](CCC(N)=O)C(=O)N[C@@H](CCC(=O)O)C(=O)N[C@@H](CC(=O)O)C(=O)N[C@@H](Cc1ccccc1)C(=O)N[C@H](C(=O)N[C@@H](CC(N)=O)C(=O)N[C@@H](Cc1c[nH]c2ccccc12)C(=O)N[C@@H](CC(C)C)C(=O)N[C@@H](CC(C)C)C(=O)N[C@@H](C)C(=O)N[C@@H](CCC(N)=O)C(=O)N[C@@H](CCCCN)C(=O)NCC(=O)O)C(C)C)[C@@H](C)CC [Sequence 12] (H-Y[Aib]EGTFISDYSIALDRIHQEDFVNWLLAQKG-OH; N-terminus and C-terminus assumed) | > 100 |
| CC[C@H](C)[C@H](NC(=O)[C@H](CO)NC(=O)[C@H](Cc1ccc(O)cc1)NC(=O)[C@H](CC(=O)O)NC(=O)[C@H](CO)NC(=O)[C@@H](NC(=O)[C@H](Cc1ccccc1)NC(=O)[C@@H](NC(=O)CNC(=O)[C@H](CCC(=O)O)NC(=O)C(C)(C)NC(=O)[C@@H](N)Cc1ccc(O)cc1)[C@@H](C)O)[C@@H](C)CC)C(=O)N[C@@H](C)C(=O)N[C@@H](CC(C)C)C(=O)N[C@@H](CC(=O)O)C(=O)N[C@@H](CCC(=O)O)C(=O)N[C@H](C(=O)N[C@@H](Cc1c[nH]cn1)C(=O)N[C@@H](CCC(N)=O)C(=O)N[C@@H](CCCCN)C(=O)N[C@@H](CC(=O)O)C(=O)N[C@@H](Cc1ccccc1)C(=O)N[C@H](C(=O)N[C@@H](CCCCN)C(=O)N[C@@H](Cc1c[nH]c2ccccc12)C(=O)N[C@@H](CC(C)C)C(=O)N[C@@H](CC(C)C)C(=O)N[C@@H](C)C(=O)N[C@@H](CCC(N)=O)C(=O)N[C@@H](CCCCN)C(=O)NCC(=O)O)C(C)C)[C@@H](C)CC [Sequence 4] (H-Y[Aib]EGTFISDYSIALDEIHQKDFVKWLLAQKG-OH; N-terminus and C-terminus assumed) | > 100 |
